Measurements: patent US11260023B2, “Topical compositions containing rofecoxib and methods of making and using the same” (BRIORI BIOTECH, LLC, priority 2020, dated 2022)

Columns and labels:
[1] = Solubility of rofecoxib in various solvents by High Performance Liquid Chromatography; assay type: physicochemical
[2] = Stability of rofecoxib by HPLC after storage for two weeks at 40° C. and 50° C.; assay type: physicochemical
Protocol: The stability of rofecoxib was assessed by HPLC after storage for two weeks at 40° C. and for two weeks at 50° C.

[3] = Solubility of rofecoxib in solvent systems containing one solvent, UV spectrophotometry; assay type: physicochemical
Protocol: The solubility of rofecoxib was tested in a variety of solvent systems by UV spectrophotometry. A UV spectrophotometry method of evaluating the solubility of rofecoxib was used to determine the solubility of rofecoxib in various solvent systems. Erk et al. describes this method and is incorporated by reference herein in its entirety: Erk et al. Pharmazie. 2004 June; 59(6):453-6.
100 mg of rofecoxib was dissolved in 100 ml of methanol. Dilutions of the stock solution were made into methanol to give a final rofecoxib concentration of 5 μg/ml, 10 μg/ml, 20 μg/ml, 25 μg/ml, 30 μg/ml, 35 μg/ml, 40 μg/ml, 45 μg/ml, and 50 μg/ml. A UV spectrophotometer was utilized to read the absorbance of the samples 279.1 nm. Using Beer's law, a value for the extinction coefficient for rofecoxib was obtained. The value of the extinction coefficient of rofecoxib was determined to be 29.06 and was utilized in future experiments to determine the concentration of rofecoxib in various solvent systems.
100 mg of rofecoxib was added to 1 gram of each solvent. […] The mixtures of rofecoxib and solvents were vortexed for one minute and left at room temperature for one hour. The mixture was vortexed a second time and then left at room temperature overnight. The next morning the samples were vortexed a third time and then centrifuged at 12 k for 5 minutes. The excipient/rofecoxib mixture was transferred to a new tube being careful to not take any of the pellet. Serial dilutions of the rofecoxib solvent solutions were made (1:100 v:v), (1:1000 v/v), and (1:2000 v/v). Solvents without rofecoxib were diluted with methanol and used to blank a Beckman DU-7400 spectrophotometer. The absorbance of the samples was determined at a wavelength of 279.1 nm. The concentration of rofecoxib dissolved in the solvent was calculated using Beer's Law. Concentrations were converted from units of mg/mL to units of mg/g according to the following procedure:
(a) The volume of 1 g of solvent times the calculated mg/ml rofecoxib equals total mg of rofecoxib in 1 g of solvent. e.g. 1 g of a solvent that has a density of 1.05 g/mL is 952 μL. A rofecoxib solution with a concentration of rofecoxib of […] contains 28.17 mg of rofecoxib in 952 μL of solvent.
(b) To calculate the total volume, a mg of rofecoxib is assumed to equal to 1 μl of volume. Add volume of the solvent to the total weight of rofecoxib. 28.17 mg+1000 mg of solvent=1028.17 mg.
(c) To calculate the w/w divide the mg of rofecoxib 28.71 mg by the total weight of rofecoxib with solvent 1028.71 mg and multiply times 1000 mg to get the w/w […]/1028.71 mg*1000 mg=28.62 mg/g of solvent.

[4] = in vivo; cited from earlier work

CS(=O)(=O)c1ccc(C2=C(c3ccccc3)C(=O)OC2)cc1 [Rofecoxib]
Solubility of Rofecoxib ([1]; in 1.25% Niacinamide (Aqueous), HPLC): No observable solubility
Solubility of Rofecoxib ([1]; in 10% Sodium Lauryl Sulfate (Aqueous), HPLC): No observable solubility*
Solubility of Rofecoxib ([1]; in Dehydrated Alcohol, HPLC): No observable solubility
Solubility of Rofecoxib ([1]; in Diethyl Sebacate, HPLC): No observable solubility
Solubility of Rofecoxib ([1]; in Diethylene Glycol Monoethyl Ether, HPLC): 0.5-1.0 % w/w
Solubility of Rofecoxib ([1]; in Diisoproovl Adipate, HPLC): No observable solubility
Solubility of Rofecoxib ([1]; in Dimethyl Isosorbide, HPLC): 2.5-3.5% w/w
Solubility of Rofecoxib ([1]; in Ethyl Acetate, HPLC): <0.5% w/w
Solubility of Rofecoxib ([1]; in Glycervl Monooleate, HPLC): No observable solubility
Solubility of Rofecoxib ([1]; in Hydrochloric Acid (0.1 N), HPLC): No observable solubility
Solubility of Rofecoxib ([1]; in Laureth-4, HPLC): No observable solubility
Solubility of Rofecoxib ([1]; in Medium Chain Triglycerides, HPLC): No observable solubility
Solubility of Rofecoxib ([1]; in N-Methvl-Pyrrolidone, HPLC): 4.4-5.4 % w/w
Solubility of Rofecoxib ([1]; in Oleyl Alcohol, HPLC): No observable solubility
Solubility of Rofecoxib ([1]; in PEG400, HPLC): 1.0-1.5 % w/w
Solubility of Rofecoxib ([1]; in Polysorbate 80, HPLC): No observable solubility
Solubility of Rofecoxib ([1]; in Propylene Carbonate, HPLC): 3.4-4.3 % w/w
Solubility of Rofecoxib ([1]; in Propylene Glycol Diacetate, HPLC): <0.5 % w/w
Solubility of Rofecoxib ([1]; in Sodium Hydroxide (0.1 N), HPLC): No observable solubility
Solubility of Rofecoxib ([1]; in Sorbitol Solution, HPLC): No observable solubility
Solubility of Rofecoxib ([1]; in Water pH 3, HPLC): No observable solubility
Solubility of Rofecoxib ([1]; in Water pH 5.5, HPLC): No observable solubility
Solubility of Rofecoxib ([1]; in Water pH 7.4, HPLC): No observable solubility
Rofecoxib Concentration ([2]; Acetone, T = 0 weeks): 2.549 % w/w
Rofecoxib Concentration ([2]; Acetone, T = 2 weeks 40° C. storage): 2.549 % w/w
Rofecoxib Concentration ([2]; Acetone, T = 2 weeks 50° C. storage): 2.549 % w/w
Rofecoxib Concentration ([2]; Benzyl alcohol, T = 0 weeks): 1.447 % w/w
Rofecoxib Concentration ([2]; Benzyl alcohol, T = 2 weeks 40° C. storage): 1.474 % w/w
Rofecoxib Concentration ([2]; Benzyl alcohol, T = 2 weeks 50° C. storage): 1.470 % w/w
Rofecoxib Concentration ([2]; Diethylene glycol monoethyl ether, T = 0 weeks): 0.687 % w/w
Rofecoxib Concentration ([2]; Diethylene glycol monoethyl ether, T = 2 weeks 40° C. storage): 0.672 % w/w
Rofecoxib Concentration ([2]; Diethylene glycol monoethyl ether, T = 2 weeks 50° C. storage): 0.677 % w/w
Rofecoxib Concentration ([2]; Dimethyl isosorbide, T = 0 weeks): 2.641 % w/w
Rofecoxib Concentration ([2]; Dimethyl isosorbide, T = 2 weeks 40° C. storage): 2.515 % w/w
Rofecoxib Concentration ([2]; Dimethyl isosorbide, T = 2 weeks 50° C. storage): 2.511 % w/w
Rofecoxib Concentration ([2]; Ethyl acetate, T = 0 weeks): 0.465 % w/w
Rofecoxib Concentration ([2]; Ethyl acetate, T = 2 weeks 40° C. storage): 0.479 % w/w
Rofecoxib Concentration ([2]; Ethyl acetate, T = 2 weeks 50° C. storage): 0.476 % w/w
Rofecoxib Concentration ([2]; N-methyl-2-pyrrolidone, T = 0 weeks): 5.046 % w/w
Rofecoxib Concentration ([2]; N-methyl-2-pyrrolidone, T = 2 weeks 40° C. storage): 5.057 % w/w
Rofecoxib Concentration ([2]; N-methyl-2-pyrrolidone, T = 2 weeks 50° C. storage): 5.055 % w/w
Rofecoxib Concentration ([2]; PEG 400, T = 0 weeks): 1.013 % w/w
Rofecoxib Concentration ([2]; PEG 400, T = 2 weeks 40° C. storage): 0.987 % w/w
Rofecoxib Concentration ([2]; PEG 400, T = 2 weeks 50° C. storage): 0.993 % w/w
Rofecoxib Concentration ([2]; Propylene Carbonate, T = 0 weeks): 3.471 % w/w
Rofecoxib Concentration ([2]; Propylene Carbonate, T = 2 weeks 40° C. storage): 3.456 % w/w
Rofecoxib Concentration ([2]; Propylene Carbonate, T = 2 weeks 50° C. storage): 3.463 % w/w
Rofecoxib Concentration ([2]; Propylene Glycol Diacetate, T = 0 weeks): 0.519 % w/w
Rofecoxib Concentration ([2]; Propylene Glycol Diacetate, T = 2 weeks 40° C. storage): 0.527 % w/w
Rofecoxib Concentration ([2]; Propylene Glycol Diacetate, T = 2 weeks 50° C. storage): 0.520 % w/w
solubility after storage ([2]; two weeks at 40° C. and 50° C., in the solvents in Table 12): remained soluble
Solubility of Rofecoxib ([3]; in 2-Methylpentane-2,4-diol): 0.59 mg/g
Solubility of Rofecoxib ([3]; in Acetone): 23.58 mg/g
Solubility of Rofecoxib ([3]; in Benzyl Alcohol): 19.54 mg/g
Solubility of Rofecoxib ([3]; in Diethyl sebacate): 1.3 mg/g
Solubility of Rofecoxib ([3]; in Diethylene glycol monoethyl ether): 9.07 mg/g
Solubility of Rofecoxib ([3]; in Diisopropyl adipate): 2.04 mg/g
Solubility of Rofecoxib ([3]; in Dimethyl Isosorbide): 39.14 mg/g
Solubility of Rofecoxib ([3]; in Dimethyl Sulfoxide): 143.6 mg/g
Solubility of Rofecoxib ([3]; in Ethyl acetate): 5.5 mg/g
Solubility of Rofecoxib ([3]; in Isopropyl tetradecanoate): 0.0017 mg/g
Solubility of Rofecoxib ([3]; in N-methyl-2-pyrrolidone): 198 mg/g
Solubility of Rofecoxib ([3]; in Oleic acid): 0.402 mg/g
Solubility of Rofecoxib ([3]; in Polyethylene glycol-400 (PEG)): 13.14 mg/g
Solubility of Rofecoxib ([3]; in Polysorbate 20 (PS20)): 9.18 mg/g
Solubility of Rofecoxib ([3]; in Polysorbate 80 (PS80)): 9.71 mg/g
Solubility of Rofecoxib ([3]; in Propylene Carbonate): 49.43 mg/g
Solubility of Rofecoxib ([3]; in Propylene Glycol): 0.302 mg/g
Solubility of Rofecoxib ([3]; in Propylene glycol diacetate): 6.93 mg/g
Solubility of Rofecoxib ([3]; in alpha-Terpineol 95.0+ %): 0.313 mg/g
half-life [4]: 17 h
